According to patent US10280174B2, “Salt of fused pyrimidine compound and crystal thereof” (TAIHO PHARMACEUTICAL CO., LTD., priority 2015, dated 2019):

Legend:
[1] = Solid stability test (severe test), 60° C.; type: physicochemical; conditions: 60° C. (Sealed)
Experimental: Solid stability was measured under the following conditions, with respect to monofumarate of Compound A, hemitartrate of Compound A and monophosphate of Compound A which were obtained in the Examples and the Reference Examples, when they were stored for 2 weeks or 4 weeks at 60° C.
Storage condition: 60° C. (Sealed)
Point of measurement: 2 weeks and 4 weeks
(§1) Storage amount: About 30 mg
(§2) Storage container: Brown glass container
(§3) Method of preparing sample solution: Sample was dissolved in 50% acetonitrile such that a concentration of the sample would be 0.4 mg/mL.
In the Table, A and B refer to percentages of the total mass of analogous substance of less than 0.1%, and 0.1% or more and less than 0.5%, respectively. Incidentally, the value marked with * was measured at 2 weeks and the others were measured at 4 weeks.

[2] = Moisture absorption/desorption test; type: physicochemical; conditions: for Weight change ratio, Adsorption / Weight change ratio, Desorption: 25° C.; for characteristic of channel hydrate: absorb/desorb moisture depending on humidity; for weight change at a maximum: humidified at a relative humidity of from 5 to 95%
Experimental: Moisture absorption/desorption test was carried out with respect to Compound A, monofumarate of Compound A, hemifumarate of Compound A, hemitartrate of Compound A and monophosphate of Compound A, to research the presence or absence of the characteristic of channel hydrate.
In the moisture absorption/desorption test, measurements were carried out according to the following conditions.
A dedicated quartz holder was filled with about from 5 to 10 mg of sample, and a weight of the sample at each humidity was measured and recorded in a continuous manner under the following conditions. Handling of the devices including data processing was based on the method and the process indicated in each device.
Device: VTI SA+ (manufactured by TA Instruments Inc.)
Drying temperature: 60° C.
Temperature rising speed: 1° C./min.
Equilibrium in drying: It is confirmed that no reduction of 0.01 wt % occurs in 5 minutes, in a range not exceeding 300 minutes.
Temperature for measurement: 25° C.
Equilibrium in humidification: It is confirmed that no increase of 0.01 wt % occurs in 5 minutes, in a range not exceeding 120 minutes.
Relative humidity program: Raised by 5% RH from 5% RH to 95% RH, and lowered by 5% RH from 95% RH to 5% RH.

[3] = Solid stability test (acceleration test), 40° C./75% RH; type: physicochemical
Experimental: Solid stability was measured under the following conditions, with respect to monofumarate of Compound A, hemifumarate of Compound A, hemitartrate of Compound A and monophosphate of Compound A which were obtained in the Examples and the Reference Examples, when they were stored for 2 weeks or 4 weeks at 40° C./75% RH (sealed condition and opened condition).
Storage condition: 40° C./75% RH (Sealed and Opened) (Opened refers to a condition where a glass container has the lid removed, and is covered with a KimWipe).
Points of measurement: 2 weeks and 4 weeks
as §1, §2, §3
Mass of analogous substance in the sample solution was measured by HPLC analysis. Handling of the devices including data processing was based on the method and the process indicated in each device. (Device: Shimadzu Corporation SIL-HTc/LC-20AB)
Column: InertSustein C18, 4.6×150 mm, 3 μm, manufactured by GL Sciences Inc.
MS detection: ESI positive
Column temperature: 40° C.
Column flow rate: 1.0 mL/min
Mobile phase: A; 10 mmol/L phosphate buffer (pH 6.0): Acetonitrile mixed solution (17:3), B; Acetonitrile
Amount of injection: 5 μL
In the Table, A, B and C refer to percentages of the total mass of analogous substance of less than 0.1%, 0.1% or more and less than 0.5%, and 0.5% or more, respectively. Incidentally, those marked with * were measured at 2 weeks' time and the others were measured at 4 weeks' time.

in vivo = conditions: Balb/cA, mouse, po, 50 mg/kg
Experimental: (§4) These administration solutions were orally administered to mice (Balb/cA) which had been bred under a feeding condition, at a dose of 10 mL per 1 kg body weight, with a sonde for oral administration. After the administration, the mice were returned to a cage for mice and conditions were checked. Inside the cage was provided with a condition where water and food were accessible ad libitum. After 0.25, 0.5, 1, 2, 4 and 6 hours from the administration, the mice were anesthetized with isoflurane, and 60 μL of blood was collected from orbital sinus with a capillary blood collection tube.
(§5) The collected blood was ice cooled, and blood plasma was separated by a centrifugal operation. The mice after the blood collection was returned to an animal breeding cage, and conditions after recovery from the anesthesia were checked. When the last blood collection was finished, the mice were euthanized by cervical dislocation, after a level check of isoflurane anesthesia.
(§6) AUC0-6 hr, Cmax and Tmax were calculated by linear-log trapezoid method with Phoenix WinNonlin (v6.3.0) which is a software manufactured by Pharsight Corporation, from a concentration of Compound A in each blood plasma measured by MRM method with LC-MS/MS.

[4] = tested on: mouse collagen-induced arthritis model; assay: Mice collagen-induced arthritis model; type: in vivo, DBA/1 mice; conditions: 3 mg/kg, positive control, 17 days; FIG. 11
Experimental: The test was carried out in accordance with the method described in Non-Patent Literature (Brand D D, et al., Nat Protoc. 2007; 2, 1269-1275, Xu D. et al., JPET, 2012 April; 341 (1):90-103). Seven-week-old male/DBA/1 mice (CHARLES RIVER LABORATORIES JAPAN, INC.) were intracutaneously injected in the dorsum with 100 μL/body of an equal amount-mixed solution (emulsion) of 4 mg/mL of bovine type 2 collagen solution (Collagen Research Center) and Complete Freund's Adjuvant (DIFCO Inc.) (initial immunization). After 21 days therefrom, the mice were intracutaneously injected in the chine with 100 μL/body of an equal amount-mixed solution (emulsion) of 4 mg/mL of bovine type 2 collagen solution (Collagen Research Center) and Complete Freund's Adjuvant (DIFCO) to provide an additional immunization. The oral administration of 1 time per day was continued for 17 days setting the administration initiation day (day 0) as the eighth day from the additional immunization. Symptoms of arthritis in day 0, day 3, day 7, day 10, day 14 and day 17 were scored macroscopically (0: No change, 1: Swelling of a finger, 2: Swelling of two fingers or more, 3: Swelling of instep, 4: Swelling of all fingers extending wrist/ankle), and a total in four limbs was obtained as a point of individual body (maximum 16 points).

[5] = Blood concentration measurement test after oral administration; conditions: mice
Experimental: as §4, §5, §6

[6] = 50 mg/kg in terms of Compound A, 0.5% HPMC suspension, plasma Compound A

SMILES: C=CC(=O)N1CCC[C@@H](n2nc(C(=O)Nc3nc4ccccc4o3)c3c(N)ncnc32)C1.O=P(O)(O)O [monophosphate of Compound A, (R)-1-(1-acryloylpiperidin-3-yl)-4-amino-N-(benzo[d]oxazol-2-yl)-1H-pyrazolo[3,4-d]pyrimidine-3-carboxamide.monophosphate]
- total mass of analogous substance ([1]; 2 weeks (marked *)): B* (0.1% or more and less than 0.5%)
- crystal form after the moisture absorption/desorption test [2]: did not maintain the original crystal form
- Weight change ratio, Adsorption ([2]; relative humidity 5%): 0.01%
- Weight change ratio, Desorption ([2]; relative humidity 5%): 5.76%
- Weight change ratio, Adsorption ([2]; relative humidity 20%): 0.19%
- Weight change ratio, Desorption ([2]; relative humidity 20%): 8.06%
- Weight change ratio, Adsorption ([2]; relative humidity 40%): 0.36%
- Weight change ratio, Desorption ([2]; relative humidity 40%): 9.29%
- Weight change ratio, Adsorption ([2]; relative humidity 60%): 0.61%
- Weight change ratio, Desorption ([2]; relative humidity 60%): 10.38%
- Weight change ratio, Adsorption ([2]; relative humidity 80%): 1.29%
- Weight change ratio, Desorption ([2]; relative humidity 80%): 12.12%
- Weight change ratio, Adsorption ([2]; relative humidity 95%): 17.90%
- Weight change ratio, Desorption ([2]; relative humidity 95%): 17.90%
- total mass of analogous substance ([3]; Opened, 2 weeks (marked *)): C* (0.5% or more)
- total mass of analogous substance ([3]; Sealed, 2 weeks (marked *)): C* (0.5% or more)

SMILES: C=CC(=O)N1CCC[C@@H](n2nc(C(=O)Nc3nc4ccccc4o3)c3c(N)ncnc32)C1 [Compound A, (R)-1-(1-acryloylpiperidin-3-yl)-4-amino-N-(benzo[d]oxazol-2-yl)-1H-pyrazolo[3,4-d]pyrimidine-3-carboxamide]
- AUC(0-t) (in vivo): 5.45 µM·h
- Cmax (in vivo): 3.98 µM
- Tmax (in vivo): 15 min
- characteristic of channel hydrate [2]: had the characteristic of channel hydrate
- weight change at a maximum [2]: about 4.4%
- Weight change ratio, Adsorption ([2]; relative humidity 5%): 0.42%
- Weight change ratio, Desorption ([2]; relative humidity 5%): 0.67%
- Weight change ratio, Adsorption ([2]; relative humidity 20%): 3.08%
- Weight change ratio, Desorption ([2]; relative humidity 20%): 3.20%
- Weight change ratio, Adsorption ([2]; relative humidity 40%): 3.60%
- Weight change ratio, Desorption ([2]; relative humidity 40%): 3.65%
- Weight change ratio, Adsorption ([2]; relative humidity 60%): 3.88%
- Weight change ratio, Desorption ([2]; relative humidity 60%): 3.88%
- Weight change ratio, Adsorption ([2]; relative humidity 80%): 4.09%
- Weight change ratio, Desorption ([2]; relative humidity 80%): 4.11%
- Weight change ratio, Adsorption ([2]; relative humidity 95%): 4.39%
- Weight change ratio, Desorption ([2]; relative humidity 95%): 4.39%

SMILES: C[C@]12C=CC(=O)C=C1CC[C@@H]1[C@@H]2[C@@H](O)C[C@@]2(C)[C@H]1CC[C@]2(O)C(=O)CO [prednisolone, reference compound]
- arthritis score [4]: only in a degree of maintaining the raised arthritis score

SMILES: C=CC(=O)N1CCC[C@@H](n2nc(C(=O)Nc3nc4ccccc4o3)c3c(N)ncnc32)C1.C=CC(=O)N1CCC[C@@H](n2nc(C(=O)Nc3nc4ccccc4o3)c3c(N)ncnc32)C1.O=C(O)/C=C/C(=O)O [hemifumarate of Compound A, (R)-1-(1-acryloylpiperidin-3-yl)-4-amino-N-(benzo[d]oxazol-2-yl)-1H-pyrazolo[3,4-d]pyrimidine-3-carboxamide.hemifumarate]
- AUC0-6 hr relative to that of Compound A ([5]; 50 mg/kg): about two fold
- Cmax relative to that of Compound A ([5]; 50 mg/kg): equivalent to that of Compound A
- AUC0-6 hr [5, 6]: 10.32 µM·h
- Cmax [5, 6]: 4.22 µM
- Tmax [5, 6]: 30 min
- Weight change ratio, Adsorption ([2]; relative humidity 5%): 0.00%
- Weight change ratio, Desorption ([2]; relative humidity 5%): 0.04%
- Weight change ratio, Adsorption ([2]; relative humidity 20%): 0.07%
- Weight change ratio, Desorption ([2]; relative humidity 20%): 0.11%
- Weight change ratio, Adsorption ([2]; relative humidity 40%): 0.16%
- Weight change ratio, Desorption ([2]; relative humidity 40%): 0.23%
- Weight change ratio, Adsorption ([2]; relative humidity 60%): 0.28%
- Weight change ratio, Desorption ([2]; relative humidity 60%): 0.40%
- Weight change ratio, Adsorption ([2]; relative humidity 80%): 0.42%
- Weight change ratio, Desorption ([2]; relative humidity 80%): 0.54%
- Weight change ratio, Adsorption ([2]; relative humidity 95%): 0.81%
- Weight change ratio, Desorption ([2]; relative humidity 95%): 0.81%
- mass change (increase) ([2]; relative humidity of 95%): less than 1%
- total mass of analogous substance ([3]; Opened, 4 weeks): A (less than 0.1%)
- total mass of analogous substance ([3]; Sealed, 4 weeks): A (less than 0.1%)
- solid stability (in words) ([3]; compared to hemitartrate or monophosphate): excellent solid stabilities

SMILES: C=CC(=O)N1CCC[C@@H](n2nc(C(=O)Nc3nc4ccccc4o3)c3c(N)ncnc32)C1.C=CC(=O)N1CCC[C@@H](n2nc(C(=O)Nc3nc4ccccc4o3)c3c(N)ncnc32)C1.O=C(O)C(O)C(O)C(=O)O [hemitartrate of Compound A, (R)-1-(1-acryloylpiperidin-3-yl)-4-amino-N-(benzo[d]oxazol-2-yl)-1H-pyrazolo[3,4-d]pyrimidine-3-carboxamide.hemi-L-(+)-tartrate]
- total mass of analogous substance ([1]; 4 weeks): B (0.1% or more and less than 0.5%)
- characteristic of channel hydrate [2]: had the characteristic of channel hydrate
- weight change at a maximum [2]: about 3.3%
- Weight change ratio, Adsorption ([2]; relative humidity 5%): 0.01%
- Weight change ratio, Desorption ([2]; relative humidity 5%): −0.28%
- Weight change ratio, Adsorption ([2]; relative humidity 20%): 1.25%
- Weight change ratio, Desorption ([2]; relative humidity 20%): 1.17%
- Weight change ratio, Adsorption ([2]; relative humidity 40%): 1.56%
- Weight change ratio, Desorption ([2]; relative humidity 40%): 1.32%
- Weight change ratio, Adsorption ([2]; relative humidity 60%): 1.67%
- Weight change ratio, Desorption ([2]; relative humidity 60%): 1.45%
- Weight change ratio, Adsorption ([2]; relative humidity 80%): 1.64%
- Weight change ratio, Desorption ([2]; relative humidity 80%): 1.72%
- Weight change ratio, Adsorption ([2]; relative humidity 95%): 3.31%
- Weight change ratio, Desorption ([2]; relative humidity 95%): 3.31%
- total mass of analogous substance ([3]; Opened, 4 weeks): B (0.1% or more and less than 0.5%)
- total mass of analogous substance ([3]; Sealed, 4 weeks): B (0.1% or more and less than 0.5%)
